± gives the standard deviation of the averaged measurements.
Assays:
[1] = compound: Cc1ccc(NC(=O)c2ccc(CN3CCN(C)CC3)cc2)cc1Nc1nccc(-c2cccnc2)n1 [IMATINIB]; experiment: surviving fraction relative to DMSO-only wells; higher = less growth inhibition; conditions: exposure time: 5 days
Method in brief: (§1)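 Each tumour cell line was screened three times, and only lines with replicate Pearson r >0.7 and median Z' >0.3 were kept. Cells in log phase were seeded at 250–500 per well in 384-well plates, left 24 hours, then exposed continuously for five days to inhibitors at 0.5, 1, 5, 10, 50, 100, 500 and 1000 nM. Viability was read as CellTiter-Glo luminescence, with surviving fraction normalised to the median of DMSO-only wells.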

[2] = compound: Cc1c(N)nc([C@H](CC(N)=O)NC[C@H](N)C(N)=O)nc1C(=O)N[C@H](C(=O)N[C@H](C)[C@@H](O)[C@H](C)C(=O)N[C@H](C(=O)NCCc1nc(-c2nc(C(=O)NCCC[S+](C)C)cs2)cs1)[C@@H](C)O)[C@@H](OC1OC(CO)C(O)C(O)C1OC1OC(CO)C(O)C(OC(N)=O)C1O)c1cnc[nH]1 [BLEOMYCIN]; experiment: as above; conditions: exposure time: 5 days
Method in brief: as §1

Row | Test System | surviving fraction ([1]; 1 nM) | surviving fraction ([1]; 10 nM) | surviving fraction ([1]; 50 nM) | surviving fraction ([1]; 100 nM) | surviving fraction ([1]; 500 nM) | surviving fraction ([1]; 1000 nM) | surviving fraction ([2]; 0.5 nM) | surviving fraction ([2]; 1 nM) | surviving fraction ([2]; 5 nM) | surviving fraction ([2]; 10 nM) | surviving fraction ([2]; 50 nM) | surviving fraction ([2]; 100 nM) | surviving fraction ([2]; 500 nM) | surviving fraction ([2]; 1000 nM) | surviving fraction ([1]; 0.5 nM) | surviving fraction ([1]; 5 nM)
1 | PCI30 HEADNECK | 0.943 ± 0.017 | 1.08 ± 0.11 | 1.13 ± 0.042 | 1.13 ± 0.024 | 1.06 ± 0.067 | 0.981 ± 0.038 | 0.917 ± 0.054 | 0.887 ± 0.054 | 0.942 ± 0.064 | 0.958 ± 0.04 | 0.655 ± 0.075 | 0.509 ± 0.048 | 0.32 ± 0.044 | 0.334 ± 0.033 |  | 
2 | SYO1 SYNOVIAL | 1.02 ± 0.028 | 0.955 ± 0.031 | 0.921 ± 0.035 | 0.898 ± 0.017 | 0.88 ± 0.056 | 0.888 ± 0.023 | 0.809 ± 0.058 | 0.778 ± 0.044 | 0.753 ± 0.035 | 0.695 ± 0.029 | 0.45 ± 0.014 | 0.355 ± 0.032 | 0.104 ± 0.019 | 0.0704 ± 0.019 | 1.03 ± 0.05 | 0.987 ± 0.037
3 | VCAP PROSTATE | 0.949 ± 0.15 | 1.17 ± 0.035 | 1.22 ± 0.12 | 1.12 ± 0.13 |  | 1.05 ± 0.086 | 0.905 ± 0.018 | 0.953 ± 0.077 | 1.07 ± 0.12 | 1.05 ± 0.12 | 1.07 ± 0.12 | 1.02 ± 0.078 | 0.84 ± 0.024 | 0.889 ± 0.081 | 1.11 ± 0.19 | 
4 | HELA CERVIX | 1.04 ± 0.039 |  |  | 1.1 ± 0.016 | 1.14 ± 0.086 | 1.09 ± 0.043 | 0.972 ± 0.026 | 0.932 ± 0.02 | 0.958 ± 0.024 | 0.963 ± 0.027 | 1.035 ± 0.0087 | 1.07 ± 0.061 | 0.803 ± 0.032 | 0.6 ± 0.062 | 1.13 ± 0.034 | 1.03 ± 0.056
5 | SAOS2 BONE | 1.14 ± 0.056 | 1.22 ± 0.063 | 1.22 ± 0.079 | 1.2 ± 0.075 | 1.16 ± 0.029 | 1.17 ± 0.097 | 0.8247 ± 0.0029 | 0.805 ± 0.068 | 0.856 ± 0.016 | 0.698 ± 0.11 | 0.968 ± 0.024 | 0.904 ± 0.063 | 0.685 ± 0.034 | 0.462 ± 0.054 | 1.14 ± 0.031 | 
6 | HCC1395 BREAST | 1.06 ± 0.11 | 1.36 ± 0.13 | 1.19 ± 0.16 | 1.36 ± 0.049 | 1.15 ± 0.068 | 1.11 ± 0.29 | 0.865 ± 0.04 | 0.881 ± 0.14 | 0.84 ± 0.1 | 0.902 ± 0.042 | 0.823 ± 0.12 | 0.872 ± 0.074 | 0.761 ± 0.12 | 0.73 ± 0.065 | 1.23 ± 0.023 | 1.24 ± 0.097
7 | HCC202 BREAST | 0.908 ± 0.013 |  | 1.11 ± 0.34 | 1.32 ± 0.45 | 1.3 ± 0.15 | 1.39 ± 0.35 | 1.13 ± 0.17 | 1.18 ± 0.095 | 1.09 ± 0.49 | 1.02 ± 0.14 | 1.1 ± 0.11 | 0.992 ± 0.17 | 0.862 ± 0.25 | 0.738 ± 0.1 | 1.44 ± 0.69 | 1.28 ± 0.18
8 | MDAMB361 BREAST | 0.879 ± 0.079 | 0.878 ± 0.046 | 0.869 ± 0.082 | 0.879 ± 0.081 |  | 0.827 ± 0.087 | 0.78 ± 0.07 | 0.761 ± 0.13 | 0.698 ± 0.03 | 0.819 ± 0.067 | 0.843 ± 0.016 | 0.882 ± 0.046 | 0.838 ± 0.047 | 0.865 ± 0.14 | 0.927 ± 0.066 | 0.826 ± 0.018
9 | COLO320DM LARGE INTESTINE | 1.14 ± 0.052 | 1.12 ± 0.11 | 1.12 ± 0.12 | 1.14 ± 0.098 | 1.15 ± 0.12 | 1.16 ± 0.039 | 1.09 ± 0.042 | 0.972 ± 0.025 | 1.03 ± 0.058 | 1.04 ± 0.099 | 1.15 ± 0.22 | 0.89 ± 0.052 | 0.868 ± 0.057 | 0.675 ± 0.024 | 1.1 ± 0.17 | 1.08 ± 0.16
10 | SCC003 HEADNECK | 1.1 ± 0.037 |  | 1.09 ± 0.033 | 1.18 ± 0.045 | 1.13 ± 0.062 | 1.12 ± 0.075 | 0.782 ± 0.088 | 0.787 ± 0.087 | 0.792 ± 0.076 | 0.822 ± 0.12 | 0.975 ± 0.012 | 0.934 ± 0.039 | 0.56 ± 0.05 | 0.457 ± 0.016 | 1.1 ± 0.07 | 1.15 ± 0.036
11 | MG63 BONE | 1.05 ± 0.029 | 1.09 ± 0.035 | 1.09 ± 0.053 | 1.08 ± 0.034 |  |  | 0.861 ± 0.018 | 0.876 ± 0.018 | 0.864 ± 0.025 | 0.829 ± 0.018 | 0.831 ± 0.02 | 0.64 ± 0.075 | 0.22 ± 0.035 | 0.132 ± 0.0027 | 1.08 ± 0.028 | 1.1 ± 0.03
12 | SG43 HEADNECK | 1.07 ± 0.36 | 1.03 ± 0.23 | 1.01 ± 0.2 | 0.901 ± 0.27 | 1.11 ± 0.13 | 1.16 ± 0.33 | 1.13 ± 0.058 | 1.08 ± 0.13 | 1.02 ± 0.096 | 0.81 ± 0.18 | 0.583 ± 0.015 | 0.78 ± 0.087 | 0.613 ± 0.17 | 0.391 ± 0.13 | 1.16 ± 0.41 | 0.895 ± 0.2
13 | MDAMB134 BREAST |  | 0.86 ± 0.057 | 1.02 ± 0.093 | 1.11 ± 0.024 | 0.994 ± 0.17 | 0.814 ± 0.15 | 0.714 ± 0.15 | 0.771 ± 0.044 | 0.844 ± 0.011 | 0.724 ± 0.047 | 0.804 ± 0.04 | 0.862 ± 0.12 | 0.733 ± 0.091 | 0.753 ± 0.088 | 0.896 ± 0.08 | 
14 | SG27 HEADNECK |  | 1.13 ± 0.088 | 1.01 ± 0.079 | 1.17 ± 0.21 | 1.09 ± 0.18 | 1.14 ± 0.068 | 1.12 ± 0.06 | 0.997 ± 0.085 | 0.934 ± 0.081 | 1.02 ± 0.011 | 0.949 ± 0.11 | 1.01 ± 0.17 | 1.01 ± 0.11 | 0.864 ± 0.14 |  | 1.02 ± 0.16
15 | 143B BONE | 1.1 ± 0.03 | 1.1 ± 0.013 | 1.14 ± 0.043 |  | 1.15 ± 0.1 | 1.14 ± 0.11 | 0.978 ± 0.023 | 0.98 ± 0.023 | 0.995 ± 0.012 | 1.01 ± 0.042 | 0.946 ± 0.0014 | 0.977 ± 0.0014 | 0.82 ± 0.03 | 0.612 ± 0.028 | 1.07 ± 0.022 | 
16 | NOS1 BONE | 1.12 ± 0.041 | 1.13 ± 0.11 |  | 1.06 ± 0.15 | 0.883 ± 0.14 | 0.898 ± 0.039 | 0.877 ± 0.087 | 0.841 ± 0.063 | 0.795 ± 0.04 | 0.782 ± 0.14 | 1.02 ± 0.33 | 0.863 ± 0.038 | 0.557 ± 0.046 | 0.656 ± 0.25 | 1.18 ± 0.11 | 1.2 ± 0.085
17 | LNCAP PROSTATE | 1.1 ± 0.1 |  | 0.967 ± 0.14 | 0.986 ± 0.049 |  |  | 1.18 ± 0.11 | 1.04 ± 0.038 | 1.14 ± 0.085 | 0.96 ± 0.15 | 1.03 ± 0.061 | 0.868 ± 0.076 | 0.847 ± 0.074 | 0.595 ± 0.072 |  | 0.968 ± 0.068
18 | JURKAT HAEMATOPOIETIC AND LYMPHOID TISSUE | 1.07 ± 0.031 |  | 0.994 ± 0.032 | 1.02 ± 0.038 | 1.03 ± 0.039 | 1.04 ± 0.041 | 1.01 ± 0.02 | 1.02 ± 0.016 | 0.986 ± 0.016 | 0.977 ± 0.012 | 0.916 ± 0.017 | 0.786 ± 0.026 | 0.232 ± 0.0061 | 0.122 ± 0.0062 | 1.05 ± 0.031 | 0.986 ± 0.034
19 | CHLA90 AUTONOMIC GANGLIA | 1.02 ± 0.071 | 0.98 ± 0.12 | 1.12 ± 0.084 | 1.02 ± 0.091 |  | 1.11 ± 0.079 | 0.941 ± 0.057 | 0.925 ± 0.035 | 0.906 ± 0.067 | 0.868 ± 0.025 | 0.864 ± 0.039 | 0.865 ± 0.021 | 0.827 ± 0.018 | 0.796 ± 0.032 | 1 ± 0.022 | 0.993 ± 0.063
20 | MDAMB468 BREAST | 1.05 ± 0.059 | 1.06 ± 0.066 | 1.09 ± 0.081 | 1.18 ± 0.032 | 1.103 ± 0.01 | 1.06 ± 0.06 | 0.804 ± 0.036 | 0.863 ± 0.058 | 0.912 ± 0.044 | 0.932 ± 0.039 | 1.09 ± 0.027 | 0.989 ± 0.049 | 0.768 ± 0.035 | 0.577 ± 0.026 | 0.997 ± 0.075 | 1.01 ± 0.02
21 | HSSYII SYNOVIAL | 0.967 ± 0.026 | 1.04 ± 0.049 | 0.966 ± 0.021 | 0.998 ± 0.033 | 0.971 ± 0.063 | 0.948 ± 0.024 | 0.797 ± 0.068 | 0.872 ± 0.045 | 0.768 ± 0.045 | 0.788 ± 0.017 | 0.6562 ± 0.0056 | 0.572 ± 0.029 | 0.224 ± 0.014 | 0.14 ± 0.0027 | 1 ± 0.1 | 
